Measured values: ChEMBL document CHEMBL2169807, “Analysis of the structural and mechanistic factors in antioxidants that preserve mitochondrial function and confer cytoprotection” (Bioorg Med Chem, 2012)
Active and inactive are the calls of the source. No cut-off for these calls is given here.

How the values were obtained:
[1] = Cytoprotection in diethyl maleate-treated human Friedreich's ataxia lymphocytes incubated for 17 hrs before diethyl maleate challenge by trypan blue dye exclusion method; assay type: functional
CCRF-CEM [2] = test: Cytoprotection in diethyl maleate-treated human CCRF-CEM cells 2.5 uM incubated for 17 hrs before diethyl maleate challenge by trypan blue dye exclusion method (reference value: 18 +/- 10%); assay type: functional
CCRF-CEM [3] = test: Cytoprotection in diethyl maleate-treated human CCRF-CEM cells 0.1 uM incubated for 17 hrs before diethyl maleate challenge by trypan blue dye exclusion method (reference value: 18 +/- 10%); assay type: functional
Bos taurus [4] = species on record: Bos taurus; test: Inhibition of NADH oxidase activity in bovine heart sub-mitochondrial particles assessed as remaining enzyme activity at 10 uM by spectrophotometry relative to untreated control
Bos taurus [5] = species on record: Bos taurus; test: Inhibition of NADH oxidase activity in bovine heart sub-mitochondrial particles assessed as remaining enzyme activity at 1 uM by spectrophotometry relative to untreated control
Homo sapiens [6] = species on record: Homo sapiens; test: Preservation of mitochondrial membrane potential in diethyl maleate-treated human Friedreich's ataxia lymphocytes at 2.5 uM pre-incubated for 16 hrs before diethyl maleate challenge by FACS method (reference value: 25%); assay type: functional
Homo sapiens [7] = species on record: Homo sapiens; test: Preservation of mitochondrial membrane potential in diethyl maleate-treated human Friedreich's ataxia lymphocytes at 0.5 uM pre-incubated for 16 hrs before diethyl maleate challenge by FACS method (reference value: 25%); assay type: functional
Bos taurus [8] = species on record: Bos taurus; test: Inhibition of NADH oxidase activity in bovine heart sub-mitochondrial particles assessed as remaining enzyme activity at 5 uM by spectrophotometry relative to untreated control
Homo sapiens [9] = species on record: Homo sapiens; test: Inhibition of lipid peroxidation in diethyl maleate-treated human Friedreich's ataxia lymphocytes at 2.5 uM pre-incubated for 16 hrs before diethyl maleate challenge by FACS method relative to untreated control; assay type: functional
CCRF-CEM [10] = test: Cytoprotection in diethyl maleate-treated human CCRF-CEM cells 0.5 uM incubated for 17 hrs before diethyl maleate challenge by trypan blue dye exclusion method (reference value: 18 +/- 10%); assay type: functional
Homo sapiens [11] = species on record: Homo sapiens; test: Inhibition of lipid peroxidation in diethyl maleate-treated human Friedreich's ataxia lymphocytes at 5 uM pre-incubated for 16 hrs before diethyl maleate challenge by FACS method relative to untreated control; assay type: functional
Homo sapiens [12] = species on record: Homo sapiens; test: Preservation of mitochondrial membrane potential in diethyl maleate-treated human Friedreich's ataxia lymphocytes at 1 uM pre-incubated for 16 hrs before diethyl maleate challenge by FACS method (reference value: 25%); assay type: functional
CCRF-CEM [13] = test: Inhibition of diethyl maleate-induced ROS production in human CCRF-CEM cells at 0.25 to 2.5 uM incubated for 16 hrs by DCFH-DA dye staining based FACS method; assay type: functional, cell-based

Row | Activity (Bos taurus [4]) | Activity (Bos taurus [5]) | Activity (Bos taurus [8]) | SMILES | EC50 [1] | Activity (CCRF-CEM [2]) | Activity (CCRF-CEM [3]) | Activity (Homo sapiens [6]) | Activity (Homo sapiens [7]) | inhibition (Homo sapiens [9]) | Activity (CCRF-CEM [10]) | inhibition (Homo sapiens [11]) | Activity (Homo sapiens [12]) | inhibition (CCRF-CEM [13])
1 | 6% | 27% | 9% | Cc1c(N(C)C)nc(CCCCCCCCCCO)c(O)c1C | 560 nM | 92% | 42% | 70% | 60% | 87% | 47% | 97% | 75% | Active
2 | 25% | 85% | 42% | Cc1cc(N(C)C)nc(CCCCCCCCCCO)c1O | 840 nM | 94% | 41% | 73% | 45% | 71% | 59% | 82% | 54% | Active
3 | 22% | 49% | 26% | Cc1nc(N(C)C)nc(CCCCCCCCCCO)c1O | 380 nM | 94% | 76% | 86% | 68% | 83% | 93% | 91% | 75% | Active

Continued, molecule first:

Row | SMILES | Activity (Bos taurus [4]) | Activity (Bos taurus [5]) | Activity (Bos taurus [8]) | EC50 [1] | Activity (CCRF-CEM [2]) | Activity (CCRF-CEM [3]) | Activity (Homo sapiens [6]) | Activity (Homo sapiens [7]) | inhibition (Homo sapiens [9]) | Activity (CCRF-CEM [10]) | inhibition (Homo sapiens [11]) | Activity (Homo sapiens [12]) | inhibition (CCRF-CEM [13])
4 | COC1=C(OC)C(=O)C(CCCCCCCCCCO)=C(C)C1=O [IDEBENONE] | 15% | 65% | 53% | 730 nM | 88% | 34% | 75% | 47% | 68% | 49% | 77% | 57% | Active
5 | Cc1cc(N)nc(CCCCCCCCCCO)c1O | 48% | 74% | 52% | – | 78% | 28% | 65% | 42% | 62% | 38% | 74% | 50% | Active
6 | Cc1cc(N(C)C)nc(C)c1O | – | – | – | – | – | – | – | 29% | 3.5% | – | 3.9% | – | –
7 | Cc1cc(N2C(C)CCC2C)nc(CCCCCCCCCCO)c1O (stereo unspecified) | 27% | 78% | 59% | 150 nM | 93% | 88% | 83% | 66% | 90% | 90% | 97% | 72% | Dose-dependent effect
8 | Cc1cc(-n2c(C)ccc2C)nc(CCCCCCCCCCO)c1O | 43% | 71% | 49% | – | 26% | 18% | 52% | 35% | 20% | 23% | 39% | 44% | –
